How the values were obtained:
[1] = target: Urokinase-type plasminogen activator (Homo sapiens, UniProt P00749)
Serine protease 1 = Serine protease 1 (Homo sapiens, UniProt P07477); assay: Inhibitory activity against Trypsin
Prothrombin = Prothrombin (Homo sapiens, UniProt P00734); assay: Inhibitory activity against Thrombin (no observable inhibition at this screening concentration)
[2] = target: Tissue-type plasminogen activator (Homo sapiens, UniProt P00750); assay: Inhibitory activity against tissue plasminogen activator
Plasminogen = Plasminogen (Homo sapiens, UniProt P00747); assay: Inhibitory activity against plasmin
Plasminogen, sequence (P00747 97-580 limits assumed): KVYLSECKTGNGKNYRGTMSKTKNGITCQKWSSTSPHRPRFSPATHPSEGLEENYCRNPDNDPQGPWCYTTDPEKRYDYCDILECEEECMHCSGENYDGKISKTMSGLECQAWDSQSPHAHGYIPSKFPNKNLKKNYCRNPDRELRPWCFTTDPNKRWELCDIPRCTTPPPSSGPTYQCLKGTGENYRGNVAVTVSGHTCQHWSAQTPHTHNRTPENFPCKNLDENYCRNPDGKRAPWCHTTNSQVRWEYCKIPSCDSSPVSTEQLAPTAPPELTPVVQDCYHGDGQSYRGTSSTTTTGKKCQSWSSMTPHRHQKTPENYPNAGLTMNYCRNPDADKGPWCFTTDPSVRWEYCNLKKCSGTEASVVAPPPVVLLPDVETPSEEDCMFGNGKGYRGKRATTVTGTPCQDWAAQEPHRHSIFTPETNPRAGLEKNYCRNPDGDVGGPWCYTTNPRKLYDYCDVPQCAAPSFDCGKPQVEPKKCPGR
Plasminogen, sequence (P00747 581-810 limits assumed): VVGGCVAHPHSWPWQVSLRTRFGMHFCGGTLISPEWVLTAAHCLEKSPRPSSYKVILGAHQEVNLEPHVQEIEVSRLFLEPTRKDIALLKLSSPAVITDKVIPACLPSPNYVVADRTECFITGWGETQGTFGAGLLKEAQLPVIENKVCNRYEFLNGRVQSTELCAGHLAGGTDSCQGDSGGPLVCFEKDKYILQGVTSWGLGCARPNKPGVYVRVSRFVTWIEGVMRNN

Tissue-type plasminogen activator, sequence (P00750 whole entry): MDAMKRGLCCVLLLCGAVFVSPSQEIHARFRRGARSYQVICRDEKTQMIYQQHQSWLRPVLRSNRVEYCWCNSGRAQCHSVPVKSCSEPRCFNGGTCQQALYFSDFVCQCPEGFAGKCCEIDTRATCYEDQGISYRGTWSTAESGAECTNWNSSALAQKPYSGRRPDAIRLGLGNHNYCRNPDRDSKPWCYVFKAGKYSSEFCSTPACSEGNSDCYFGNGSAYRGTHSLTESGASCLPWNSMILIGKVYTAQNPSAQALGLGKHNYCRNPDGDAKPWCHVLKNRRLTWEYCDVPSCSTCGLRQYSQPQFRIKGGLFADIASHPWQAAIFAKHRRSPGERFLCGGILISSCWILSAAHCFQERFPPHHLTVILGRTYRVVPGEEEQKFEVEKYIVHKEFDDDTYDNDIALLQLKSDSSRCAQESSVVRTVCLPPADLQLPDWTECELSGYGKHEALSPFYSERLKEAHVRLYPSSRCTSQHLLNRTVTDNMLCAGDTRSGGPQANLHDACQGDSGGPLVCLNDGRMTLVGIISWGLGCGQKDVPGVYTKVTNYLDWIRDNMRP
Serine protease 1, sequence (P07477 whole entry): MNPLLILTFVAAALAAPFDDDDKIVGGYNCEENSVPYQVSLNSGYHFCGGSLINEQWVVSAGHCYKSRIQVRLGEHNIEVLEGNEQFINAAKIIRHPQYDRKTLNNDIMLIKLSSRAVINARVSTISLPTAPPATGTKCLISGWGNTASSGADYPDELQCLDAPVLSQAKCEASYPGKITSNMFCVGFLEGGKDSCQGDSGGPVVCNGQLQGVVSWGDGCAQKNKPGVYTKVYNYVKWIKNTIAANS

| Ki [1] | SMILES | also measured |
| --- | --- | --- |
| 6 µM | CSc1ccc(C(=N)N)s1 | – |
| 815 µM | CSc1sc(C(=N)N)cc1-c1nc(C)cs1 | – |
| 115 µM | COc1cccc(-c2csc(-c3cc(C(=N)N)sc3SC)n2)c1 | Ki (Serine protease 1): 0.86 µM; Ki (Prothrombin): > 30 µM; Ki [2]: 1.9 µM; Ki (Plasminogen): 6.9 µM |
| > 28 µM | CSc1sc(C(=N)N)cc1-c1cccc(-c2ccccc2)n1 | – |
| 145 µM | CSc1sc(C(=N)N)cc1-c1nc(-c2ccc3c(c2)CCCC3)cs1 | – |
| 287 µM | CSc1sc(C(=N)N)cc1-c1nc(-c2ccc(Cl)cc2Cl)cs1 | – |
| 100 µM | CSc1sc(C(=N)N)cc1-c1nc(-c2ccc3c(c2)OCCCO3)cs1 | – |
| 1740 µM | CSc1sc(C(=N)N)cc1-c1nc(-c2ccc(-c3ccccc3)cc2)cs1 | – |
| 164 µM | CSc1sc(C(=N)N)cc1-c1nc(-c2cnccc2Cl)cs1 | – |
| 161 µM | CSc1sc(C(=N)N)cc1-c1nc(-c2ccc(Cl)c([N+](=O)[O-])c2)cs1 | – |
| 47 µM | CSc1sc(C(=N)N)cc1-c1nc(-c2cccc(NC(=O)c3ccc(F)cc3)c2)cs1 | – |
| 982 µM | CSc1sc(C(=N)N)cc1-c1nc(-c2ccccc2)c(-c2ccccc2)s1 | – |
| 305 µM | CSc1sc(C(=N)N)cc1-c1nc(-c2ccccc2)c(C)s1 | – |
| 277 µM | CSc1sc(C(=N)N)cc1-c1nc(-c2ccccc2C)cs1 | – |
| > 34 µM | CSc1sc(C(=N)N)cc1-c1cccc(-c2ccccc2)c1 | – |
| 154 µM | CSc1sc(C(=N)N)cc1-c1nc(-c2cccnc2Cl)cs1 | – |
| 91 µM | CSc1sc(C(=N)N)cc1-c1nc(-c2ccc3c(c2)OCO3)cs1 | Ki (Serine protease 1): 0.88 µM; Ki (Prothrombin): > 29 µM; Ki [2]: 1.7 µM; Ki (Plasminogen): 10.8 µM |
| 178 µM | CSc1sc(C(=N)N)cc1-c1nc(COc2ccccc2)cs1 | – |

| Ki [1] | SMILES | also measured |
| --- | --- | --- |
| 86 µM | CSc1sc(C(=N)N)cc1-c1nc(-c2cccc(O)c2)cs1 | Ki (Serine protease 1): 0.93 µM; Ki (Prothrombin): > 25 µM; Ki [2]: 1.7 µM; Ki (Plasminogen): 32.1 µM |
| 94 µM | CSc1sc(C(=N)N)cc1-c1nc(-c2ccc(C)cc2)cs1 | – |
| 270 µM | CSc1sc(C(=N)N)cc1-c1nc(-c2ccc([N+](=O)[O-])cc2)cs1 | – |
| 141 µM | CSc1sc(C(=N)N)cc1-c1nc(-c2csc3ccccc23)cs1 | – |
| 442 µM | CSc1sc(C(=N)N)cc1-c1nc(-c2cccc(Br)c2)cs1 | – |
| 546 µM | CSc1sc(C(=N)N)cc1-c1nc(-c2cccc(C)c2)cs1 | – |
| 44 µM | CSc1sc(C(=N)N)cc1-c1nc(-c2ccc(O)c(C)c2)cs1 | – |
| 108 µM | CSc1sc(C(=N)N)cc1-c1nc(-c2ccc3c(c2)OCCO3)cs1 | – |
| 44 µM | COC(=O)COc1cccc(-c2csc(-c3cc(C(=N)N)sc3SC)n2)c1 | – |
| 120 µM | CSc1sc(C(=N)N)cc1-c1nc(-c2ccnc(Cl)c2)cs1 | – |
| 138 µM | CSc1sc(C(=N)N)cc1-c1nc(-c2ccc3ccccc3c2)cs1 | – |
| 99 µM | CSc1sc(C(=N)N)cc1-c1nc(-c2ccc(Cl)cc2)cs1 | – |
| 327 µM | COc1ccc(-c2csc(-c3cc(C(=N)N)sc3SC)n2)cc1 | – |
| 641 µM | CSc1sc(C(=N)N)cc1-c1nc(C2CCCCC2)cs1 | – |
| 94 µM | CSc1sc(C(=N)N)cc1-c1nc(-c2ccc(NS(C)(=O)=O)cc2)cs1 | – |
| 130 µM | COc1ccccc1-c1csc(-c2cc(C(=N)N)sc2SC)n1 | – |
| 272 µM | CSc1sc(C(=N)N)cc1-c1nc(-c2ccc(S(=O)(=O)Nc3ccc(C)cc3)cc2)cs1 | – |
| 152 µM | COc1ccc(-c2csc(-c3cc(C(=N)N)sc3SC)n2)c(OC)c1 | – |

| SMILES | Ki [1] | also measured |
| --- | --- | --- |
| CSc1sc(C(=N)N)cc1-c1ccccc1 | 0.6 µM | – |

Reference: ChEMBL document CHEMBL1134078, “Structure-based design, synthesis and SAR of a novel series of thiopheneamidine urokinase plasminogen activator inhibitors” (Bioorg Med Chem Lett, 2001)
